{
  "source": "patent US8815875B2",
  "about": "(Merck Sharp & Dohme Corp., priority 2008, dated 2014)",
  "key": {"[1]": {"biological_target": "FABP4 (Homo sapiens, UniProt P15090)", "sequence (P15090 whole entry, species assumed)": "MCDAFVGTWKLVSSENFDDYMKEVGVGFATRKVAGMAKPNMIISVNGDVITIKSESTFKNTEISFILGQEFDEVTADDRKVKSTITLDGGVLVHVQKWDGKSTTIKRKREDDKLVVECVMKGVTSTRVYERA", "assay": "TdF (Temperature Dependence Fluorescence) assay, thermal shift, FABP4", "format": "binding", "procedure,_shortened": "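Binding measured as ΔTm versus protein alone; binding constants derived by nonlinear fitting with ΔHL set to −7 kcal/mol and ΔCpL to zero.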"}, "[2]": {"biological_target": "FABP5 (Homo sapiens, UniProt Q01469)", "sequence (Q01469 whole entry, species assumed)": "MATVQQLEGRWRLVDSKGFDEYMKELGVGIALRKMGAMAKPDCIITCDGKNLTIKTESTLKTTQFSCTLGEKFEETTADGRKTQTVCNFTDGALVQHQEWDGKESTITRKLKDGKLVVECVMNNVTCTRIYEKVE", "assay": "TdCD (Temperature-dependent Circular Dichroism) assay, FABP5", "format": "binding", "conditions": "T=20° C.; compounds tested at 50 μM and 25 μM", "source_text": "[formula] (see Brandts et al and Mayhood et al, shown above) where ΔHL (T) is the van't Hoff enthalpy of ligand binding at temperature T and ΔCpL is the heat capacity upon ligand binding. For simplicity, the ΔCpL and ΔHL (T) were set to zero and −7 kcal/mol respectively. […] TdCD (Temperature-dependent Circular Dichroism) Assay for FABP3/4/5\nJASCO 810 spectropolarimeter was used to measure Circular Dichroism (CD) spectra and temperature-dependent protein unfolding profiles. The instrument is equipped with a 6-cell piezoelectric temperature controller. Ellipticity was monitored at 226 nm as a function of temperature with a 1 mm path length cell. The scan rate was 1° C./min with a 4 s response time and 30 s equilibration between measurements.\n10 mM stocks of individual compounds were made in 100% DMSO. […] DMSO was added to protein-alone (apo) samples to 1% to compensate for DMSO amounts in protein+ligand samples.\nBriefly, the To (midpoint of unfolding for the unliganded protein) was calculated from best fit of the unfolding data to the equation below:\n[formula] Where, Yobs is the observed ellipticity value at any temperature T, Yn and Yu are the predicted ellipticity values for fully folded and unfolded species, respectively, mn and mu are slope correction for changes in Yn and Yu with respect to changes in temperature. T0 is the midpoint temperature at which the unliganded protein unfolds and ΔHu and ΔCpu are the heat of unfolding and heat capacity of unfolding, respectively for the unliganded species.\nIn presence of ligand, the midpoint temperature (Tm) defines where the equilibrium concentrations of unfolded and folded species are equal. Incorporation of the unliganded free energy of binding and subsequent thermodynamic substitution yielded the binding constant of the ligand at the Tm value of unfolding:\n[formula] where, T0 is the midpoint of unfolding for unliganded protein and Tm is the midpoint of unfolding in presence of ligand. [LTm] is free ligand at Tm.\nBased on estimates for enthalpy of binding, ΔHL (estimated to be −7 kcal/mol) and ligand binding heat capacity ΔCpL (set to be zero), the ligand binding association constant (KL) at temperature T=20° C. were calculated as below."}},
  "data": [
    {"smiles": "O=c1cc(CN2CCc3c(Cl)cccc32)[nH]c2nc(-c3ccccc3)nn12", "note": "[6-3]", "values": [
      {"measurement": "FABP4 TdF Kd", "setting": "[1]", "result": "B (0.5 ≦ B < 0.001 μM)"},
      {"measurement": "Kd", "setting": "[2]", "result": "> 500", "unit": "nM"}
    ]}
  ]
}
